Like-named read-outs stand apart in the source and are kept apart here.
Columns and labels:
[1] = animals and humans, cited from earlier work; for "liver first-pass" effect: especially on oral administration; for biotransformation: enzymatic oxidation of the oxo- or hydroxyhexyl side chain
[2] = test system: regional cerebral circulation; assay: Action on regional cerebral circulation of anesthetized cats (heat conducting technique); assay type: in vivo, cats of both sexes; details: Felis catus, iv, 3 mg/kg i.v., read-out: Average increase in cerebral circulation as Δλ in %
Procedure: The percentage increase in the heat transport number λ after administration of the product is thus a measure of the improvement in circulation.
The compounds were administered intravenously in aqueous solution. The dose was 3 mg of test substance per kg of body weight. 3 to 5 individual experiments were carried out for each test product, and the average percentage increase in cerebral circulation was determined from the measurement data obtained.

ischemic skeletal muscle [3] = assay: Action on disturbed peripheral arterial circulation: pO2 in ischemic skeletal muscle, occlusion model on dogs; assay type: in vivo, male beagle dogs; parameters: key: W = % frequency of positive experiments × mean % pO2 increase; details: dog occlusion model
Procedure: The experimental animals used were male beagle dogs under sodium pentobarbital anesthesia (35 mg/kg intraperitoneally), on whose right hind extremity the femoral artery and a certain area of the lower leg muscle was exposed and on whose left hind extremity the femoral vein was exposed and a cannula inserted for infusion of the product and the femoral artery was exposed and a cannula inserted for blood pressure measurements. The animals were relaxed by administration of alcuronium chloride (0.1 mg/kg intravenously and then 0.05 mg/kg intraperitoneally every 30 minutes) and artificially ventilated in order on the one hand to avoid spontaneous contractions of the muscle with an adverse effect on the pO2 measurements and on the other hand to guarantee a uniform supply of respiratory oxygen. Another catheter inserted into the femoral vein of the right hind extremity was used to monitor the lactate concentration in the venous outflow. […]
In each experiment, the maximum percentage rise in the pO2 following administration of the substance during vascular occlusion was used as the measurement parameter for the action of the product (n=2-11). A dimensionless activity index W was calculated from three measurement values for each compound by obtaining the product of the percentage frequency of positive experiments and the average percentage increase in pO2 resulting from the positive individual values, this index both taking into account interindividual differences in the topology of the vascularization of the muscle and also recording responders and nonresponders to the test compounds and accordingly permitting a more reliable activity comparison amongst the individual products.

in vivo = details: mouse, in vivo, single dose, 7 days, read-out: Toxicity LD50 (mouse)
Procedure: (§1) The LD50 ranges were determined by the standard method via the mortality which arose within 7 days in NMRI mice following a single intravenous (i.v.) or intraperitoneal (i.p.) dose (NMRI=Naval Medical Research Institute).

NMRI mice = assay: in vivo; details: single dose, 7 days, Table 3
Procedure: as §1

[4] = test system: ischemic skeletal muscle (tibialis anterior and extensor digitorum longus); assay: Chronic experiment on rats with unilateral occlusion of the iliac artery: metabolism in ischemic skeletal muscle (histochemical staining); assay type: in vivo
ischemic skeletal muscle [5] = assay: Chronic experiment: contractility of the ischemic skeletal muscle in rats with a ligated right femoral artery; assay type: in vivo; details: 25 mg/kg daily oral, 20 days
Procedure: The superiority of the xanthines of the formula I was also to be seen from another chronic experiment in which the influence on the contractility of the ischemic skeletal muscle in rats with a ligated right femoral artery was investigated. The animals received the particular test product in a daily oral dose of 25 mg/kg by a stomach tube for 20 days. Thereafter, the fatigability of the ischemic muscle on electrical stimulation with about 80 contractions per minute was determined via the decrease in contractile force after stimulation for 1, 15 and 45 minutes in comparison with untreated control animals. […] This improvement was accompanied by an increase in the mitochondrial respiratory control rate (RCR). […] The compounds according to the invention are accordingly also suitable for the treatment of muscular energy metabolism disorders of various causes, particularly mitochondrial myopathy.

[6] = test system: isolated perfused rabbit ear; assay: Inhibiting effect on vascular contraction induced with norfenefrine on the isolated perfused rabbit ear
From the text: It is today generally recognized that exclusively vasodilating drugs or agents with a very potent vasodilating action component are unsuitable for the treatment of disturbances in the microcirculation because, on the one hand, the physiological vasodilatory reserve as a rule is already completely exhausted, and on the other hand there is the risk of a steal phenomenon, which means a harmful redistribution of the nutritive blood flow in the microcirculation at the expense of the already undersupplied diseased tissue. The inhibiting effect on vascular contraction induced with norfenefrine on the isolated perfused rabbit ear was therefore investigated.

| SMILES | change in vivo at 3 mg/kg [2] | Activity index W (ischemic skeletal muscle [3]; i.d. 25 mg/kg) | Activity index W (ischemic skeletal muscle [3]; i.v. 0.6 mg/kg/min) | also measured |
| --- | --- | --- | --- | --- |
| CC(O)CCCCn1c(=O)c2c(ncn2C)n(C)c1=O (stereo not shown) [1-(5-hydroxyhexyl)-3,7-dimethylxanthine] |  |  |  | "liver first-pass" effect [1]: pronounced; biotransformation [1]: rapid and complete |
| CCCn1c(=O)c2c(ncn2CCCCC(C)(C)O)n(C)c1=O [Example 3, 7-(5-Hydroxy-5-methylhexyl)-3-methyl-1-propylxanthine] | 15.5% | 1250 | 1650 | LD50 at 168 h (in vivo; iv, Table 2): 100 to 200 mg/kg; Toxicity LD50 (mouse) (NMRI mice; i.v.): 100 to 200 mg/kg |
| Cn1c(=O)c2c(ncn2CCCCC(C)(C)O)n(C)c1=O [Example 4, 7-(5-Hydroxy-5-methylhexyl)-1,3-dimethylxanthine] |  |  | 1300 | LD50 at 168 h (in vivo; iv, Table 2): 100 to 200 mg/kg |
| CCOCn1cnc2c1c(=O)n(CCCCC(C)(C)O)c(=O)n2C [Example 5, 7-Ethoxymethyl-1-(5-hydroxy-5-methylhexyl)-3-methylxanthine] |  | 2909 |  | proportion of oxidative fibers in the two muscles of the ischemic extremity ([4]; 3 mg/kg intraperitoneally three times daily, 5 weeks): increased significantly; mitochondrial respiratory control rate (RCR) (ischemic skeletal muscle [5]): increase; contractility values reached in the ischemic muscle (ischemic skeletal muscle [5]; compared with healthy muscle of untreated animals): normal contractility values like those in the left healthy (non-ischemic) muscle of untreated animals being reached; muscular performance in the ischemic extremity (ischemic skeletal muscle [5]; electrical stimulation for 1, 15 and 45 minutes): significant improvement; inhibition of the norfenefrine action ([6]; up to a concentration of 100 μg/ml): no inhibition; Activity index W (ischemic skeletal muscle [3]; i.v. 0.3 mg/kg/min): 2080; LD50 at 168 h (in vivo; ip, Table 2): 300 to 600 mg/kg; LD50 at 168 h (in vivo; iv, Table 2): 150 to 300 mg/kg |
| Cn1c(=O)n(CCCCC(C)(C)O)c(=O)c2[nH]cnc21 [Example 6, 1-(5-Hydroxy-5-methylhexyl)-3-methylxanthine] |  | 700 |  |  |
| CC(O)Cn1cnc2c1c(=O)n(CCCCC(C)(C)O)c(=O)n2C (stereo not shown) [Example 8, 1-(5-Hydroxy-5-methylhexyl)-7-(2-hydroxypropyl)-3-methylxanthine] |  |  | 1400 |  |
| CCCn1cnc2c1c(=O)n(CCCCC(C)(C)O)c(=O)n2C [Example 9, 1-(5-Hydroxy-5-methylhexyl)-3-methyl-7-propylxanthine] | 9.4% |  |  | LD50 at 168 h (in vivo; iv, Table 3): 100 to 200 mg/kg |
| CCC(C)(O)CCCCn1c(=O)c2c(ncn2C)n(C)c1=O (stereo not shown) [Example 10, 1-(5-Hydroxy-5-methylheptyl)-3,7-dimethylxantine] |  | 1965 |  |  |
| CCCn1cnc2c1c(=O)n(CCCC(C)(C)O)c(=O)n2C [Example 12, 1-(4-Hydroxy-4-methylpentyl)-3-methyl-7-propylxanthine] |  | 2337 | 866 |  |
| Cn1cnc2c1c(=O)n(CCCCC(C)(C)O)c(=O)n2C [Example 14, 1-(5-Hydroxy-5-methylhexyl)-3,7-dimethylxanthine] |  |  | 960 |  |
| CCCn1cnc2c1c(=O)n(CCCCCC(C)(C)O)c(=O)n2C [Example 16] | 25.8% |  | 999 | LD50 at 168 h (in vivo; ip, Table 2): 150 to 300 mg/kg; Toxicity LD50 (mouse) (NMRI mice; i.p.): 150 to 300 mg/kg |
| CCn1c(=O)n(CCCCC(C)(C)O)c(=O)c2c1ncn2C [Example 17] | 9.4% |  | 1525 | LD50 at 168 h (in vivo; iv, Table 3): > 200 mg/kg |
| CCCn1cnc2c1c(=O)n(CCCCC(C)(C)O)c(=O)n2CC [Example 18] | 9.4% |  | 1578 | LD50 at 168 h (in vivo; iv, Table 2): 100 to 200 mg/kg; Toxicity LD50 (mouse) (NMRI mice; i.v.): 100 to 200 mg/kg |
| CCCn1cnc2c1c(=O)n(CCCC(C)(C)O)c(=O)n2CC [Example 22] | 12% |  |  | LD50 at 168 h (in vivo; iv, Table 3): > 200 mg/kg |
| COCn1cnc2c1c(=O)n(CCCCCC(C)(C)O)c(=O)n2C [Example 27] | 10.3% |  |  | LD50 at 168 h (in vivo; iv, Table 3): > 200 mg/kg |
| COCn1cnc2c1c(=O)n(CCCCC(C)(C)O)c(=O)n2C [Example 28] |  | 2100 |  |  |
| COCn1cnc2c1c(=O)n(CCC(C)(C)O)c(=O)n2C [Example 32] |  | 566 | 2650 |  |
| CCn1c(=O)n(CCCCC(C)(C)O)c(=O)c2c1ncn2CCOC [Example 37] |  | 950 | 1400 |  |
| CCOCCn1cnc2c1c(=O)n(CCCCC(C)(C)O)c(=O)n2C [Example 39] |  | 1996 | 1567 |  |
| CCn1c(=O)n(CCCCC(C)(C)O)c(=O)c2c1ncn2CCCOC [Example 43] | 19.8% |  |  | LD50 at 168 h (in vivo; iv, Table 3): > 200 mg/kg |
| COCCOCn1cnc2c1c(=O)n(CCCCC(C)(C)O)c(=O)n2C [Example 44] |  |  | 1199 |  |
| CCOCCOCCn1cnc2c1c(=O)n(CCCCC(C)(C)O)c(=O)n2CC [Example 48] | 14.6% |  |  | LD50 at 168 h (in vivo; iv, Table 3): > 200 mg/kg |
| Cn1c(=O)n(CCCCC(C)(C)O)c(=O)c2c1ncn2CCCO [Example 50] |  | 733 | 2631 |  |
| CC(=O)CCCCn1c(=O)c2c(ncn2C)n(C)c1=O [Pentoxifylline, 3,7-dimethyl-1-(5-oxohexyl)-xanthine, reference compound] | 8.6% |  |  | influence on muscular metabolism in the ischemic skeletal muscle ([4]; chronic experiment, iliac artery occlusion): no direct influence; "liver first-pass" effect [1]: pronounced; biotransformation [1]: rapid and complete; action in these experiments (ischemic muscle contractility) (ischemic skeletal muscle [5]): no action; dilating effect on the norfenefrine-contracted vessels ([6]; concentration range from 10 to 100 μg/ml): dose-dependent dilating effect |

Source: patent US4833146A, “Tertiary hydroxyalkylxanthines, medicaments containing them and their use” (priority 1985, dated 1989)
